Reference: the kinase profiling compilation of Christmann-Franck et al. (2016)

How the values were obtained:
Test in all cases: KINOMEscan competition binding
Details in all cases: compound 10.0 µM
DYRK1B (human) = DYRK1B (human) (UniProt Q9Y463)
MELK (human) = MELK (human) (UniProt Q14680)
WEE2 (human) = WEE2 (human) (UniProt P0C1S8)
PAK4 (human) = PAK4 (human) (UniProt O96013)
SYK (human) = SYK (human) (UniProt P43405)
FYN (human) = FYN (human) (UniProt P06241)
AKT2 (human) = AKT2 (human) (UniProt P31751)
MAP4K1 (human) = MAP4K1 (human) (UniProt Q92918)
RPS6KA1 KD1 (human) = RPS6KA1 KD1 (human) (UniProt Q15418)
MAP3K12 (human) = MAP3K12 (human) (UniProt Q12852)
ACVR2B (human) = ACVR2B (human) (UniProt Q13705)
DAPK1 (human) = DAPK1 (human) (UniProt P53355)
MAPK11 (human) = MAPK11 (human) (UniProt Q15759)
CAMK2A (human) = CAMK2A (human) (UniProt Q9UQM7)
TEC (human) = TEC (human) (UniProt P42680)
PAK3 (human) = PAK3 (human) (UniProt O75914)
EIF2AK2 (human) = EIF2AK2 (human) (UniProt P19525)
CaMK1 (human) = CaMK1 (human) (UniProt Q14012)
MARK1 (human) = MARK1 (human) (UniProt Q9P0L2)
NEK9 (human) = NEK9 (human) (UniProt Q8TD19)
[1] = target: TYK2 JH2 pseudokinase (human) (UniProt P29597)
PDGFRB (human) = PDGFRB (human) (UniProt P09619)
CSNK1D (human) = CSNK1D (human) (UniProt P48730)
MLTK (human) = MLTK (human) (UniProt Q9NYL2)
MYLK4 (human) = MYLK4 (human) (UniProt Q86YV6)
RPS6KA5 KD2 (human) = RPS6KA5 KD2 (human) (UniProt O75582)
CLK1 (human) = CLK1 (human) (UniProt P49759)
MAPK10 (human) = MAPK10 (human) (UniProt P53779)
AURKB (human) = AURKB (human) (UniProt Q96GD4)
EPHA4 (human) = EPHA4 (human) (UniProt P54764)
HIPK1 (human) = HIPK1 (human) (UniProt Q86Z02)
CHUK (human) = CHUK (human) (UniProt O15111)
ERBB2 (human) = ERBB2 (human) (UniProt P04626)
PRKCQ (human) = PRKCQ (human) (UniProt Q04759)
MAPK1 (human) = MAPK1 (human) (UniProt P28482)
MUSK (human) = MUSK (human) (UniProt O15146)
STK38L (human) = STK38L (human) (UniProt Q9Y2H1)
LTK (human) = LTK (human) (UniProt P29376)
ITK (human) = ITK (human) (UniProt Q08881)
BRSK1 (human) = BRSK1 (human) (UniProt Q8TDC3)

Sequence of DAPK1 (human) (P53355 whole entry, looked up): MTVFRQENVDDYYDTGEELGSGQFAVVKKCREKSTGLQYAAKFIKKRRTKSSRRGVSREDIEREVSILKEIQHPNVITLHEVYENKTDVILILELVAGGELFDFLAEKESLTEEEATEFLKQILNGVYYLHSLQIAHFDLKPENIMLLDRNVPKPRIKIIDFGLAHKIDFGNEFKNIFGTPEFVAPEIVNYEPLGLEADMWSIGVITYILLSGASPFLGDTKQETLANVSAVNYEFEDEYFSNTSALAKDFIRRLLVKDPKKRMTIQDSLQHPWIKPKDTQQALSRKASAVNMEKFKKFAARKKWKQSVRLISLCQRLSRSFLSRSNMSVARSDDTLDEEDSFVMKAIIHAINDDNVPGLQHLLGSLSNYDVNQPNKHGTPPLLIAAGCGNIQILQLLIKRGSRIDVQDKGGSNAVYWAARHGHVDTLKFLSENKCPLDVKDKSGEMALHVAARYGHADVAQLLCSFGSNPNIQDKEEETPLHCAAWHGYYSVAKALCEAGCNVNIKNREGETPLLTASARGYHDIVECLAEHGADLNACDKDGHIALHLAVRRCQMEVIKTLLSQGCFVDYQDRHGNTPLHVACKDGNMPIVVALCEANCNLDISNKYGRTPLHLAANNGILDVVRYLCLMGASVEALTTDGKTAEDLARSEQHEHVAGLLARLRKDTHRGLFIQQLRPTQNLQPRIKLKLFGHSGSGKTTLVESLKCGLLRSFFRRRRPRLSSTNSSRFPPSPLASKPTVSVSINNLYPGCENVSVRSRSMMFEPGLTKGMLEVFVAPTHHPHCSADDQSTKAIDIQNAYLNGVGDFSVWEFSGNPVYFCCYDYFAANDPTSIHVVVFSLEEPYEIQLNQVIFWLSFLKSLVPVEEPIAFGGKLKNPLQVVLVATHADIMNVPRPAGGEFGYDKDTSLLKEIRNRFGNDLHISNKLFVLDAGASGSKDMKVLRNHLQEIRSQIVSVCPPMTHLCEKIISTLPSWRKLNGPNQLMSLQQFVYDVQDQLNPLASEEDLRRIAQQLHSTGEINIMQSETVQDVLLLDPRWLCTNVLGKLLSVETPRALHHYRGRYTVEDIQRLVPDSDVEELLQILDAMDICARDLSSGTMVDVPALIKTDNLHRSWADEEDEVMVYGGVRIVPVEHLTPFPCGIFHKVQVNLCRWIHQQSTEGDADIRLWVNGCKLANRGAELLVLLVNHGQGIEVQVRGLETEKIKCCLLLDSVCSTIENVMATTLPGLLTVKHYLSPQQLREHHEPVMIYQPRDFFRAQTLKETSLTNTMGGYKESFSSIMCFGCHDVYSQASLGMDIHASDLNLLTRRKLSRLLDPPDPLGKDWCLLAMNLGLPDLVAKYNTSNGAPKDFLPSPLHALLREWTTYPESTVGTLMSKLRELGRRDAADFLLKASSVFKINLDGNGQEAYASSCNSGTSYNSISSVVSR
Sequence of MELK (human) (Q14680 whole entry, looked up): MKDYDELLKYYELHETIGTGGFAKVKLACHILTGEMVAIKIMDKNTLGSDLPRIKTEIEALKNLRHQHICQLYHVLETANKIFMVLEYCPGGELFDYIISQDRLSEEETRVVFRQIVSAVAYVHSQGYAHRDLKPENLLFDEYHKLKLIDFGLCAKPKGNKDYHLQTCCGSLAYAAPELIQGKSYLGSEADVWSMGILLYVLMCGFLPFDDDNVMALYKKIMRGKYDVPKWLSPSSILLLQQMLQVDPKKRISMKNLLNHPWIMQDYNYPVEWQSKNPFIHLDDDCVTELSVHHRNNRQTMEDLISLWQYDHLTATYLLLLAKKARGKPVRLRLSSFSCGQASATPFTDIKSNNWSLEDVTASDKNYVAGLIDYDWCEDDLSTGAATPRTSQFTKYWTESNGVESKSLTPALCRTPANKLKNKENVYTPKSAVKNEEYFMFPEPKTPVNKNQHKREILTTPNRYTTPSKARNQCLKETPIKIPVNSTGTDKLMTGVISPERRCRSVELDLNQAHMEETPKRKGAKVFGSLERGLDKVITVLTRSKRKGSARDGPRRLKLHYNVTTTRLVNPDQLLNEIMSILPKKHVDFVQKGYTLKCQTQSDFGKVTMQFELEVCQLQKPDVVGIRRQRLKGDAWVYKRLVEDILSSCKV
Sequence of WEE2 (human) (P0C1S8 whole entry, looked up): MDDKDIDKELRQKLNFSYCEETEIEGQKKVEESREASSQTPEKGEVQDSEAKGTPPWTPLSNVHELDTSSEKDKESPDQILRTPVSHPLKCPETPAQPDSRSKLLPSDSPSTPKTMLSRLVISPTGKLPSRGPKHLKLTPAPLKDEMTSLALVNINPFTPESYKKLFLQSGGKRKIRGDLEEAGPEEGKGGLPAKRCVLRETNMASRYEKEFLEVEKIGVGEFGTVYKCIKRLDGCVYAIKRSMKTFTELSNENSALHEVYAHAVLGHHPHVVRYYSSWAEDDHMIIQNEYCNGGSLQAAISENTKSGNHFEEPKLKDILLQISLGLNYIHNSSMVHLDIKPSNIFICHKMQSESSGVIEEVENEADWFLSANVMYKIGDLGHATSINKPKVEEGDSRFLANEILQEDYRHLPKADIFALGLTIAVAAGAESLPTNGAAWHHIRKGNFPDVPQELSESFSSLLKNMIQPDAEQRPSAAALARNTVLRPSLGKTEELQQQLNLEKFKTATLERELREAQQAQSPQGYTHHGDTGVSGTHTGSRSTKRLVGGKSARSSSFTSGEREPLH
Sequence of EIF2AK2 (human) (P19525 whole entry, looked up): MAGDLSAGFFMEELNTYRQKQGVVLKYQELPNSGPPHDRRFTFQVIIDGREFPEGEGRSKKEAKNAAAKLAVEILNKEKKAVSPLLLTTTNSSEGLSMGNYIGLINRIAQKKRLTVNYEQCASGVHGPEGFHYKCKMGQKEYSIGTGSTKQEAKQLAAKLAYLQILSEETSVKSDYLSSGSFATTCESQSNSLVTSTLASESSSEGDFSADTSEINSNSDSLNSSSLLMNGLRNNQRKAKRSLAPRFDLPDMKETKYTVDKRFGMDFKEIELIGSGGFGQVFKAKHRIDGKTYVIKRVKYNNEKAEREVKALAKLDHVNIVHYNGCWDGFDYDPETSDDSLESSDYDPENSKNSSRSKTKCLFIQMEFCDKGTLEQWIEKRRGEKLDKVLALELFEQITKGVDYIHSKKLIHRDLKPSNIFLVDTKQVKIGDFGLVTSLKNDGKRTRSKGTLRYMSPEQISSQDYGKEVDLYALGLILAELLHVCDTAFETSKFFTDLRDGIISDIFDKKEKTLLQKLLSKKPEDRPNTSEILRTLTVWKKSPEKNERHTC
Sequence of MUSK (human) (O15146 whole entry, looked up): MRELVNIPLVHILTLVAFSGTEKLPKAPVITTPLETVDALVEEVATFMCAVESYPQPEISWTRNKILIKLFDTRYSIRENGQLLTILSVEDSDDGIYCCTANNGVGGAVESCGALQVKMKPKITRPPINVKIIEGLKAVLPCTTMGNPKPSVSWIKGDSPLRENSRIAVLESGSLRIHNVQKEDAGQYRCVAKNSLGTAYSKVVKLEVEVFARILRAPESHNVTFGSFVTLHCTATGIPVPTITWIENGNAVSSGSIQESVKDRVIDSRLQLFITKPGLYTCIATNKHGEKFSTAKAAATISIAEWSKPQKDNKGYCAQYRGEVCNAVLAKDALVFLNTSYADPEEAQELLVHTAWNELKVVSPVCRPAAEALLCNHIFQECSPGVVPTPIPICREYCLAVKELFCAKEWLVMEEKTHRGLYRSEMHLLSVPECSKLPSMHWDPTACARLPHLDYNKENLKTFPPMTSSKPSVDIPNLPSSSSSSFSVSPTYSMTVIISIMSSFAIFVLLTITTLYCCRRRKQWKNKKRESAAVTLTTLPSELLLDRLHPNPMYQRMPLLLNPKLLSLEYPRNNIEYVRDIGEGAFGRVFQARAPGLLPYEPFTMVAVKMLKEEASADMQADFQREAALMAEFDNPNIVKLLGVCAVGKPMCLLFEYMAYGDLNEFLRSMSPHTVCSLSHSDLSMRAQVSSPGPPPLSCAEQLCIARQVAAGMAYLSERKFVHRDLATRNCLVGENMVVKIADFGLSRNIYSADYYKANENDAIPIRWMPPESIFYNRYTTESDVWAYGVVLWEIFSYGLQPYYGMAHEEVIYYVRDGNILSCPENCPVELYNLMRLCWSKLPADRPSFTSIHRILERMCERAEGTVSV
Sequence of AKT2 (human) (P31751 whole entry, looked up): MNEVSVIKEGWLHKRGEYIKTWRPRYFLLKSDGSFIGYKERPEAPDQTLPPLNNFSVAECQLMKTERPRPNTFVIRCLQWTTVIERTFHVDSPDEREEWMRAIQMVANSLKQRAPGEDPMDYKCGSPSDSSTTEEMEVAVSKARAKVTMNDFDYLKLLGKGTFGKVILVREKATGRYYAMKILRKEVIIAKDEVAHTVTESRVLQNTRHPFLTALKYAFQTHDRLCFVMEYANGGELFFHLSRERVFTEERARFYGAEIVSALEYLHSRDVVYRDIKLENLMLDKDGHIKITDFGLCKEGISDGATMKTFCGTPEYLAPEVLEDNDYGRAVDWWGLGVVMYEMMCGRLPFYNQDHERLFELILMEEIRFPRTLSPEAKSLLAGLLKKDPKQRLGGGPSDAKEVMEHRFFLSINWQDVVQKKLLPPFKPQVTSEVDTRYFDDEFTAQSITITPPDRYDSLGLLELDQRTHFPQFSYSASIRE
Sequence of ACVR2B (human) (Q13705 whole entry, looked up): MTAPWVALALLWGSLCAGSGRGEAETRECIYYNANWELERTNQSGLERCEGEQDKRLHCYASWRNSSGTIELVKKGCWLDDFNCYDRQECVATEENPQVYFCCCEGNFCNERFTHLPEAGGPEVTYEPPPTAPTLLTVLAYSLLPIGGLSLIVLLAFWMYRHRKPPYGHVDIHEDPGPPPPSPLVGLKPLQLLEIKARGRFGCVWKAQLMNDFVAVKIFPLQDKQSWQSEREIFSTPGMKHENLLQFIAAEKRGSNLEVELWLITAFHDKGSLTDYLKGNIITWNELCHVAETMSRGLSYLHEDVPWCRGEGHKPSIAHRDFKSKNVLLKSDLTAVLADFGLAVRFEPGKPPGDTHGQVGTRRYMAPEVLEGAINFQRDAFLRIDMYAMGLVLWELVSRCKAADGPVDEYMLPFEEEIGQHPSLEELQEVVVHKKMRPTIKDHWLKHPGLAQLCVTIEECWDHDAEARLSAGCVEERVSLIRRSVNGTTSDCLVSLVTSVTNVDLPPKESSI

## O=C(NC1CC1)c1cccc(-c2ccc3c(NC(=O)C4CC4)n[nH]c3c2)c1
DYRK1B (human)
  kinase still bound, per cent of control: 89%
MELK (human)
  kinase still bound, per cent of control: 64%
WEE2 (human)
  kinase still bound, per cent of control: 100%
PAK4 (human)
  kinase still bound, per cent of control: 79%
SYK (human)
  kinase still bound, per cent of control: 100%
FYN (human)
  kinase still bound, per cent of control: 79%
AKT2 (human)
  kinase still bound, per cent of control: 91%
MAP4K1 (human)
  kinase still bound, per cent of control: 68%
RPS6KA1 KD1 (human)
  kinase still bound, per cent of control: 81%
MAP3K12 (human)
  kinase still bound, per cent of control: 30%
ACVR2B (human)
  kinase still bound, per cent of control: 84%
DAPK1 (human)
  kinase still bound, per cent of control: 91%
MAPK11 (human)
  kinase still bound, per cent of control: 2.6%
CAMK2A (human)
  kinase still bound, per cent of control: 88%
TEC (human)
  kinase still bound, per cent of control: 95%
PAK3 (human)
  kinase still bound, per cent of control: 60%
EIF2AK2 (human)
  kinase still bound, per cent of control: 85%
CaMK1 (human)
  kinase still bound, per cent of control: 84%
MARK1 (human)
  kinase still bound, per cent of control: 96%
NEK9 (human)
  kinase still bound, per cent of control: 100%
[1]
  kinase still bound, per cent of control: 32%
PDGFRB (human)
  kinase still bound, per cent of control: 24%
CSNK1D (human)
  kinase still bound, per cent of control: 78%
MLTK (human)
  kinase still bound, per cent of control: 100%
MYLK4 (human)
  kinase still bound, per cent of control: 42%
RPS6KA5 KD2 (human)
  kinase still bound, per cent of control: 100%
CLK1 (human)
  kinase still bound, per cent of control: 77%
MAPK10 (human)
  kinase still bound, per cent of control: 61%
AURKB (human)
  kinase still bound, per cent of control: 30%
EPHA4 (human)
  kinase still bound, per cent of control: 100%
HIPK1 (human)
  kinase still bound, per cent of control: 28%
CHUK (human)
  kinase still bound, per cent of control: 76%
ERBB2 (human)
  kinase still bound, per cent of control: 100%
PRKCQ (human)
  kinase still bound, per cent of control: 100%
MAPK1 (human)
  kinase still bound, per cent of control: 100%
MUSK (human)
  kinase still bound, per cent of control: 91%
STK38L (human)
  kinase still bound, per cent of control: 96%
LTK (human)
  kinase still bound, per cent of control: 100%
ITK (human)
  kinase still bound, per cent of control: 100%
BRSK1 (human)
  kinase still bound, per cent of control: 64%

## Cc1ccc(NC(=O)c2cccc(C(C)(C)C#N)c2)cc1Nc1ccc2ncn(C)c(=O)c2c1
DYRK1B (human)
  kinase still bound, per cent of control: 100%
MELK (human)
  kinase still bound, per cent of control: 100%
WEE2 (human)
  kinase still bound, per cent of control: 100%
PAK4 (human)
  kinase still bound, per cent of control: 72%
SYK (human)
  kinase still bound, per cent of control: 100%
FYN (human)
  kinase still bound, per cent of control: 3.6%
AKT2 (human)
  kinase still bound, per cent of control: 100%
MAP4K1 (human)
  kinase still bound, per cent of control: 63%
RPS6KA1 KD1 (human)
  kinase still bound, per cent of control: 85%
MAP3K12 (human)
  kinase still bound, per cent of control: 74%
ACVR2B (human)
  kinase still bound, per cent of control: 100%
DAPK1 (human)
  kinase still bound, per cent of control: 100%
MAPK11 (human)
  kinase still bound, per cent of control: 0%
CAMK2A (human)
  kinase still bound, per cent of control: 100%
TEC (human)
  kinase still bound, per cent of control: 100%
PAK3 (human)
  kinase still bound, per cent of control: 81%
EIF2AK2 (human)
  kinase still bound, per cent of control: 75%
CaMK1 (human)
  kinase still bound, per cent of control: 87%
MARK1 (human)
  kinase still bound, per cent of control: 100%
NEK9 (human)
  kinase still bound, per cent of control: 100%
[1]
  kinase still bound, per cent of control: 100%
PDGFRB (human)
  kinase still bound, per cent of control: 0%
CSNK1D (human)
  kinase still bound, per cent of control: 100%
MLTK (human)
  kinase still bound, per cent of control: 6.5%
MYLK4 (human)
  kinase still bound, per cent of control: 100%
RPS6KA5 KD2 (human)
  kinase still bound, per cent of control: 100%
CLK1 (human)
  kinase still bound, per cent of control: 100%
MAPK10 (human)
  kinase still bound, per cent of control: 73%
AURKB (human)
  kinase still bound, per cent of control: 100%
EPHA4 (human)
  kinase still bound, per cent of control: 0%
HIPK1 (human)
  kinase still bound, per cent of control: 100%
CHUK (human)
  kinase still bound, per cent of control: 72%
ERBB2 (human)
  kinase still bound, per cent of control: 72%
PRKCQ (human)
  kinase still bound, per cent of control: 98%
MAPK1 (human)
  kinase still bound, per cent of control: 100%
MUSK (human)
  kinase still bound, per cent of control: 92%
STK38L (human)
  kinase still bound, per cent of control: 100%
LTK (human)
  kinase still bound, per cent of control: 100%
ITK (human)
  kinase still bound, per cent of control: 100%
BRSK1 (human)
  kinase still bound, per cent of control: 91%

## CCN1CCN(Cc2ccc(Nc3ncc4c(n3)N(C)c3ccccc3C(=O)N4C)cc2C(F)(F)F)CC1
DYRK1B (human)
  kinase still bound, per cent of control: 68%
MELK (human)
  kinase still bound, per cent of control: 75%
WEE2 (human)
  kinase still bound, per cent of control: 64%
PAK4 (human)
  kinase still bound, per cent of control: 80%
SYK (human)
  kinase still bound, per cent of control: 78%
FYN (human)
  kinase still bound, per cent of control: 20%
AKT2 (human)
  kinase still bound, per cent of control: 100%
MAP4K1 (human)
  kinase still bound, per cent of control: 18%
RPS6KA1 KD1 (human)
  kinase still bound, per cent of control: 100%
MAP3K12 (human)
  kinase still bound, per cent of control: 49%
ACVR2B (human)
  kinase still bound, per cent of control: 29%
DAPK1 (human)
  kinase still bound, per cent of control: 65%
MAPK11 (human)
  kinase still bound, per cent of control: 82%
CAMK2A (human)
  kinase still bound, per cent of control: 53%
TEC (human)
  kinase still bound, per cent of control: 99%
PAK3 (human)
  kinase still bound, per cent of control: 9.4%
EIF2AK2 (human)
  kinase still bound, per cent of control: 95%
CaMK1 (human)
  kinase still bound, per cent of control: 78%
MARK1 (human)
  kinase still bound, per cent of control: 21%
NEK9 (human)
  kinase still bound, per cent of control: 72%
[1]
  kinase still bound, per cent of control: 13%
PDGFRB (human)
  kinase still bound, per cent of control: 56%
CSNK1D (human)
  kinase still bound, per cent of control: 32%
MLTK (human)
  kinase still bound, per cent of control: 65%
MYLK4 (human)
  kinase still bound, per cent of control: 99%
RPS6KA5 KD2 (human)
  kinase still bound, per cent of control: 100%
CLK1 (human)
  kinase still bound, per cent of control: 86%
MAPK10 (human)
  kinase still bound, per cent of control: 100%
AURKB (human)
  kinase still bound, per cent of control: 0.95%
EPHA4 (human)
  kinase still bound, per cent of control: 100%
HIPK1 (human)
  kinase still bound, per cent of control: 78%
CHUK (human)
  kinase still bound, per cent of control: 100%
ERBB2 (human)
  kinase still bound, per cent of control: 100%
PRKCQ (human)
  kinase still bound, per cent of control: 100%
MAPK1 (human)
  kinase still bound, per cent of control: 77%
MUSK (human)
  kinase still bound, per cent of control: 100%
STK38L (human)
  kinase still bound, per cent of control: 90%
LTK (human)
  kinase still bound, per cent of control: 100%
ITK (human)
  kinase still bound, per cent of control: 100%
BRSK1 (human)
  kinase still bound, per cent of control: 41%
